Assays:
Assay type in all cases: functional
Fusarium graminearum = assay: Antifungal activity against Fusarium graminearum at 100 ug after 7 days by poison-food method; settings: 168 h, read-out: IZ
Micrococcus luteus = assay: Antibacterial activity against Micrococcus luteus at 100 ppm after 24 hr by cup-plate method; settings: read-out: IZ
Escherichia coli = assay: Antibacterial activity against Escherichia coli at 100 ppm after 24 hr by cup-plate method; settings: read-out: IZ
Staphylococcus aureus = assay: Antibacterial activity against Staphylococcus aureus at 100 ppm after 24 hr by cup-plate method; settings: read-out: IZ

| Compound | zone of inhibition at 100 µg/disc (Fusarium graminearum) | zone of inhibition at 100 ppm (Micrococcus luteus) | zone of inhibition at 100 ppm (Escherichia coli) | zone of inhibition at 100 ppm (Staphylococcus aureus) |
| --- | --- | --- | --- | --- |
| O=C1CC2c3ccc4ccccc4c3OC2N1c1ccc([N+](=O)[O-])cc1 (stereo not drawn) | 25 mm | 10 mm | 8 mm | 8 mm |
| CC1(C)S[C@@H]2[C@H](NC(=O)[C@H](N)c3ccccc3)C(=O)N2[C@H]1C(=O)O [AMPICILLIN] | – | 5 mm | 4 mm | 5 mm |
| Cc1ccc(N2C(=O)CC3c4ccc5ccccc5c4OC32)cc1 (stereo not drawn) | 50 mm | 18 mm | 10 mm | 11 mm |
| O=C1CC2c3ccc4ccccc4c3OC2N1c1cccc([N+](=O)[O-])c1 (stereo not drawn) | 25 mm | 9 mm | 9 mm | 21 mm |
| O=C1CC2c3ccc4ccccc4c3OC2N1c1ccccc1 (stereo not drawn) | 45 mm | 11 mm | 11 mm | 10 mm |
| O=C1CC2c3ccc4ccccc4c3OC2O1 (stereo not drawn) | 45 mm | 10 mm | 11 mm | 10 mm |

From ChEMBL document CHEMBL3045575, “Synthesis of tetracyclic aza-/oxa-naphthalen-8-ones and their antimicrobial activity” (2013)
